Reference: patent publication EP4527906A1, “OXIDATION RESISTANT COMPOSITIONS OF DINAHYDROHEXITOLS CONTAINING BENZOPHENONE OR ITS DERIVATIVES” (ROQUETTE FRERES, priority 2023, dated 2025)

How the values were obtained:
Assay type in all cases: physicochemical
[1] = PetroOxy test: induction time (resistance to oxidation)
Excerpt: The resistance of compositions according to the invention to oxidation may indeed be characterized by this measurement called the "PetroOxy test" which consists in measuring over time the pressure inside a cell loaded with a sample of composition exposed to an initial pressure of dioxygen and a constant temperature. The protocol of this test is described below after.
(§1) The method hereafter is described for isosorbide as the chemical compound having at least one heterocycle, and is also applicable to any chemical compound having at least one heterocycle.
3 grams of a purified 50 wt% dry matter isosorbide solution in distilled water with or without the addition of antioxidant are weighed precisely in a glass cup and then placed in the hermetic enclosure of the measuring device "PetroOxy" model 13-3002 from Petrotest, now Anton Paar GmbH. The air present in the cell is purged 3 times at room temperature with pure oxygen via a pressurized cylinder (Alphagas, purity >99.5%). The temperature and working pressure of pure oxygen is then set at 120°C and 700 kPa (7 bars) of oxygen. The pressure is continuously monitored during the experiment. The decrease in pressure in the test chamber is due to oxygen consumption during oxidation reactions of the sample studied. The variation in relative pressure during the experiment makes it possible to determine the time after which the sample begins its degradation by oxidation, which is called induction time, also referred as "OIT", under the test conditions.
The induction time of the sample is determined as follows:
The relative pressure of oxygen consumption is given by the relation (Pmax -Pt)/Pmax. Pmax is the maximum pressure attained by the system during the measurement, corresponding to the maximum pressure at the beginning of time, and Pt is the pressure as a function of time when oxygen is consumed. The induction time of the sample is given by the inflection point of the oxygen consumption curve, i.e. the intersection of the two linear domains as shown on figure Fig.1.
The longer the induction time, the greater the oxidation resistance of the sample. To calculate precisely this parameter, a calculation method by linear regression between the two-line segments before and after the inflection point is performed.

[2] = Yellow coloration index measurement (ASTM E313), before thermal treatment; settings: isosorbide solution with 100 ppm antioxidant, measured as a liquid at 65°C
Procedure: (§2) The yellow coloration index, expressed in YID units, was measured using a Colorflex EZ from Hunterlab according to ASTM E313. The spectrophotometer is a sealed optics, 256-elements diode array, having a 400-700 nm spectral range and a high-resolution concave holographic grating. 55 grams of composition are placed at 65°C, in a 64 mm diameter cylindric cell including a ring and white disk cap. The coloration of the composition was measured as a liquid at 65°C.

[3] = Thermal treatment test: yellow coloration index after heating; settings: for Yellow coloration index After-Before: difference after minus before thermal test, 100 ppm antioxidant; for Yellow coloration index after thermal test: isosorbide solution with 100 ppm antioxidant, 245°C for 40 minutes under nitrogen
Procedure: as §2, §1
The thermal stability of compositions of isosorbide, was studied according to the following protocol: 70 g of a 80 wt% solution of isosorbide in water was placed in a three-necked round flask and inerted with high purity nitrogen (purity >99.9%) during 10 minutes at a flowrate of around 2000 mL/min. The product was then heated at 245°C using an oil bath for 40 minutes under a 500 mL/min nitrogen flowrate. Then the product was cooled down to 80°C under the same nitrogen flowrate and yellow coloration measurement (YID value) was measured immediately.
Coloration before and after "thermal treatment" as well as their difference is related to the product thermal stability, i.e. to the sensitivity of the product to oxidation.

[4] = isosorbide aqueous solution with 100 ppm antioxidant, 120°C and 7 bars of oxygen
[5] = listed as 4,4'-dihydroxy-benzophenone

Row | SMILES | Induction time [1, 4] | Yellow coloration index before thermal test [2] | Yellow coloration index After-Before [3] | Yellow coloration index after thermal test [3] | Induction time (hours) ([1]; isosorbide aqueous solution with 100 ppm antioxidant, 120°C and 7 bars of oxygen, listed as 2-hydroxy-4-methoxy benzophenone) | Yellow coloration index after thermal test ([3]; listed as 2-hydroxy-4-methoxy-benzophenone) | Yellow coloration index before thermal test [2, 5] | Yellow coloration index after thermal test [3, 5] | % versus no antioxidant ([1]; change of induction time versus isosorbide solution without antioxidant (3.5 h), 100 ppm antioxidant) | Yellow coloration index after thermal test ([3]; listed as benzophenone)
1 | O=C(c1ccccc1)c1ccccc1 [Sample 2.1, Benzophenone] | 3.8 h | 1.3 YID | 6.4 YID | 7.7 YID |  |  |  |  | about 9% | lower than 10 YID
2 | CCCOC(=O)c1cc(O)c(O)c(O)c1 [Sample 3, Propyl gallate, reference compound] |  | 9.1 YID | 5.2 YID | 14.3 YID |  |  |  |  |  | 
3 | O=C(c1ccc(O)cc1)c1ccc(O)cc1 [Sample 2.2, 4,4'-dihydroxy-benzophenone] | 3.9 h | 4.2 YID | 5.1 YID | 9.3 YID |  |  | lower than 10 YID | lower than 10 YID |  | 

Further lines, with some results ahead:

Row | Induction time [1, 4] | Yellow coloration index before thermal test [2] | Yellow coloration index After-Before [3] | Yellow coloration index after thermal test [3] | Induction time (hours) ([1]; isosorbide aqueous solution with 100 ppm antioxidant, 120°C and 7 bars of oxygen, listed as 2-hydroxy-4-methoxy benzophenone) | Yellow coloration index after thermal test ([3]; listed as 2-hydroxy-4-methoxy-benzophenone) | Yellow coloration index before thermal test [2, 5] | Yellow coloration index after thermal test [3, 5] | SMILES | % versus no antioxidant ([1]; change of induction time versus isosorbide solution without antioxidant (3.5 h), 100 ppm antioxidant) | Yellow coloration index after thermal test ([3]; listed as benzophenone)
4 | 5.2 h | 12.3 YID | 37 YID | 49.3 YID |  |  |  |  | COc1ccc(C(=O)c2ccccc2O)c(O)c1 [Sample 2.4, 2,2'-dihydroxy-4-methoxybenzophenone] |  | 
5 | 4.6 h | 2.2 YID | 3.9 YID | 6.1 YID | around 4,6 hours | below 7 YID |  |  | COc1ccc(C(=O)c2ccccc2)c(O)c1 [Sample 2.3, 2-hydroxy-4-methoxybenzophenone] |  | 
